16 compounds from patent US8546377B2 (AbbVie Inc., priority 2009, dated 2013) can be followed below.

In one test the target is T1, 5HT2B receptors (Homo sapiens, UniProt P41595).
T1 construct: expressed in transfected cells; host or cells: CHO-K1 cells
As to the kind of experiment: Human 5-HT2B functional assay in CHO-K1 cells (calcium flux, FLIPR). The class given is cell-based. Particulars: for Emax: CHO-K1, read-out: Emax (%), 5-HT2B Agonist Activity. A digest of the protocol: (§1)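 EC50 came from a 4-parameter logistic fit, with Emax expressed relative to serotonin, of intracellular Ca2+ rises read on FLIPR at 480/530 nm, 25° C, over 3 min. Compounds ran from 10 μM in six 1:10 steps (0.2% DMSO) on serum-starved CHO-K1 transfectants pre-loaded 60 min with Ca4 dye and probenecid.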
Background: Calcium flux is commonly read through the fluorescence of an indicator in the cells.

The target of test [1] is T2, 5HT2C receptors (Homo sapiens, UniProt P28335).
T2 sequence (P28335 33-458): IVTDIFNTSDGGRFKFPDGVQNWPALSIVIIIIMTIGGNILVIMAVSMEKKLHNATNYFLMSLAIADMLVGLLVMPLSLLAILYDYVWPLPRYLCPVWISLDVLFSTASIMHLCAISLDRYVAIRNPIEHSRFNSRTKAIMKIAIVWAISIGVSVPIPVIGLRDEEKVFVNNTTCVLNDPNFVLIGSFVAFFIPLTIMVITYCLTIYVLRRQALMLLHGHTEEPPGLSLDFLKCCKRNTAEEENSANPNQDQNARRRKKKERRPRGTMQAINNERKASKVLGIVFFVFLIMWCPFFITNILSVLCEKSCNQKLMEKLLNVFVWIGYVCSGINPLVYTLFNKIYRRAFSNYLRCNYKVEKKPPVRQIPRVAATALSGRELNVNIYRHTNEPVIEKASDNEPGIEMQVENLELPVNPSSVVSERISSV
As to the kind of experiment: Human 5-HT2C functional assay in 1321N1 cells (intracellular calcium, FLIPR). The class given is cell-based. Particulars: for EC50: 1321N1 cells stably transfected, maximum calcium response, read-out: EC50 (μM), 5-HT2c Agonist Activity; for Emax: 1321N1 cells, percentage relative to the effect of serotonin, read-out: Emax (%), 5-HT2c Agonist Activity. On the set-up: expressed in transfected cells; host or cells: 1321N1 cells. The procedure:
(ii) Human 5-HT2C Functional Assay in 1321N1 Cells
Functional activity was determined by testing the effect of the compounds on intracellular calcium levels in 1321N1 cells stably transfected with the human 5-HT2C receptor. Cells were seeded into 96-well plates at 50,000 cells/well and grown overnight in tissue culture medium (DMEM with Glutamax I (Invitrogen), containing 10% dFCS, 50 μg/mL Gentamicin, 400 μg/mL Geneticin) at 37° C. and 7% CO2. Growth medium was replaced by medium without dFCS for overnight incubation. Cells were loaded with a fluorescent calcium-sensitive dye in the presence of 1% probenicid according to the manufacturer's protocol (Fluo4 AM, Molecular Devices). Serial compound dilutions (final concentrations 10^−10 to 10^−5 M) were added to the cells either alone or in the presence of serotonin (10^−9 M) and the maximum calcium response was determined using a FLIPR instrument (Molecular Devices). Concentration-response curves were fitted using a four-parameter logistic equation (GraphPad Prism). The concentration at which the compound exerts half its maximal effect is named the ‘effective concentration 50’ or ‘EC50’ and is listed in Table 2.
Emax is the maximum functional response or efficacy expressed as a percentage relative to the effect of serotonin.

In test [2] the target is T2, 5HT2C receptors. Nature of the test: Human 5-HT2C functional assay in CHO-K1 cells (calcium flux, FLIPR). The class given is cell-based. On the set-up: expressed in transfected cells; host or cells: CHO-K1 cells. Conditions: for Emax: percentage relative to the effect of serotonin. The essentials: as §1
Test [3] concerns the target T3, human serotonin 5-HT2c receptor (Homo sapiens, UniProt P28335).
T3 construct: expressed in transfected cells; host or cells: CHO cells (membrane homogenate)
T3 sequence (P28335 33-458): T2 sequence (P28335 33-458)
As to the kind of experiment: Human 5-HT2C receptor radioligand binding assay (agonist site, [125I](±)DOI). Conditions: membranes of transfected CHO cells, 0.2 nM [125I](±)DOI, 15 minutes at 37° C. As for the experimental part: To determine the effectiveness of compounds having a formula (I), these compounds can be evaluated in a radioligand binding assay for the agonist site of the human serotonin 5-HT2c receptor or in vitro models of cellular function.
(i) Human 5-HT2C Receptor Radioligand Binding Assay
Affinity of compounds for the agonist site of the 5-HT2c receptor in transfected CHO cells was determined in a radioligand binding assay essentially as described by Bryant, H. U., et al., Life Sciences (1996) 59(15), 1259-1268.

Where [4] appears, read: CHO-K1, read-out: Emax (%), 5-HT2c Agonist Activity, CHO-K1 cells.

The structures appear in SMILES notation. Read-outs that look alike come from different tables or passages of the source. Some results are limits rather than exact numbers.

T1 sequence (P41595 whole entry): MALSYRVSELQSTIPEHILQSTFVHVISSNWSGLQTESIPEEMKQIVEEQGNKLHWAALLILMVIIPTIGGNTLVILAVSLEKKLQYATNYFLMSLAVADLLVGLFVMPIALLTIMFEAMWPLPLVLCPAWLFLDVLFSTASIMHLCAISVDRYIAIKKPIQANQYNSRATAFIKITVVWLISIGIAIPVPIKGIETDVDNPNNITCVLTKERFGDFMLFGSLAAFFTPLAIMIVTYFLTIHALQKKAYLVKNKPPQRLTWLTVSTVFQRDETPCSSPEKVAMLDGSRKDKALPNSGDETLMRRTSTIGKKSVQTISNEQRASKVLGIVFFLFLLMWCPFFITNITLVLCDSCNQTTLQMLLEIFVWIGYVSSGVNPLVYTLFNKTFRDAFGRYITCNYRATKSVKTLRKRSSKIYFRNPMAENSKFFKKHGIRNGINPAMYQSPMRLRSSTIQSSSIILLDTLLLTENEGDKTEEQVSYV

`Brc1ccc2c(c1)NCCC1CNCCN21` (centres unmarked) [Example 19, 9-bromo-1,2,3,4,4a,5,6,7-octahydropyrazino[1,2-a][1,5]benzodiazepine]: the EC50 at 5HT2B receptors is > 10 µM; at 5HT2C receptors [1] it was 0.0283 µM; at 5HT2C receptors [2], 0.02 µM. Further, the Emax on 5HT2C receptors [1] was 85.5%; on 5HT2C receptors [2] (setting [4]), > 120%. In addition, the Ki in test [3] was found to be 0.14 µM.
Turning to `O=C1CC2CNCCN2c2cccc(F)c2N1` (centres unmarked) [Example 32, 8-fluoro-1,2,3,4,4a,5-hexahydropyrazino[1,2-a][1,5]benzodiazepin-6(7H)-one], the values for the concentration for a half-maximal effect (EC50) at 5HT2B receptors, on 5HT2C receptors [1] and on 5HT2C receptors [2] were > 10 µM, 0.0258 µM and 0.008 µM, respectively. Further, the maximal response (Emax) on 5HT2C receptors [1] is 102%; on 5HT2C receptors [2] (setting [4]), 100%. Moreover, in test [3], the inhibitory constant (Ki) was found to be 0.042 µM.
For `O=C1C[C@H]2CNCCN2c2cc(Cl)ccc2N1` [Example 41, (4aS)-10-chloro-1,2,3,4,4a,5-hexahydropyrazino[1,2-a][1,5]benzodiazepin-6(7H)-one], the figures for the EC50 at 5HT2B receptors, on 5HT2C receptors [1] and on 5HT2C receptors [2] were 0.006 µM, 0.002 µM and 0.0008 µM, respectively. Moreover, the Emax on 5HT2B receptors was 110%; at 5HT2C receptors [1] it was 99.5%; on 5HT2C receptors [2] (setting [4]) it was > 120%. Affinity in test [3] was put at a Ki of 0.005 µM.
On to `O=C1CC2CNCCN2c2cc(F)ccc2N1` (centres unmarked) [Example 35, 10-fluoro-1,2,3,4,4a,5-hexahydropyrazino[1,2-a][1,5]benzodiazepin-6(7H)-one], for which the figures for the concentration giving a half-maximal response (EC50) on 5HT2B receptors, on 5HT2C receptors [1] and at 5HT2C receptors [2] were 0.6 µM, 0.052 µM and 0.02 µM, respectively. For the same compound, the Emax at 5HT2B receptors was 80%; on 5HT2C receptors [1], 100%; on 5HT2C receptors [2] (setting [4]), > 120%. For the same compound, in test [3], affinity was put at a Ki of 0.11 µM.
With `Cc1cccc2c1NC(=O)CC1CNCCN21` (centres unmarked) [Example 40, 8-methyl-1,2,3,4,4a,5-hexahydropyrazino[1,2-a][1,5]benzodiazepin-6(7H)-one], the EC50 at 5HT2B receptors is > 10 µM; on 5HT2C receptors [1], 0.0068 µM; at 5HT2C receptors [2] it was 0.005 µM. Further, the Emax was determined as 89.5% at 5HT2C receptors [1] and 110% on 5HT2C receptors [2] (setting [4]). The same compound had a Ki in test [3] of 0.035 µM.
As to `O=C1CC2CNCCN2c2c(F)cccc2N1` (centres unmarked) [Example 33, 11-fluoro-1,2,3,4,4a,5-hexahydropyrazino[1,2-a][1,5]benzodiazepin-6(7H)-one], the EC50 is > 10 µM on 5HT2B receptors, 0.0142 µM on 5HT2C receptors [1] and 0.01 µM on 5HT2C receptors [2]. Moreover, the maximal effect (Emax) at 5HT2C receptors [1] was 98%; at 5HT2C receptors [2] (setting [4]) it was > 120%. The Ki in test [3] turned out to be 0.042 µM.
With `O=C1NCC2CNCCN2c2ccccc21` (centres unmarked) [Example 46, 2,3,4,4a,5,6-hexahydropyrazino[1,2-a][1,4]benzodiazepin-7(1H)-one], the EC50 on 5HT2B receptors was 0.3 µM; on 5HT2C receptors [1], 0.0059 µM; at 5HT2C receptors [2], 0.008 µM. Besides, the Emax at 5HT2B receptors is 80%; at 5HT2C receptors [1], 93%; on 5HT2C receptors [2] (setting [4]), > 120%. For the same compound, the inhibition constant (Ki) in test [3] turned out to be 0.033 µM.
On to `CCOc1ccc2c(c1)N1CCNCC1CC(=O)N2` (centres unmarked) [Example 44, 10-ethoxy-1,2,3,4,4a,5-hexahydropyrazino[1,2-a][1,5]benzodiazepin-6(7H)-one], for which the EC50 on 5HT2B receptors (CHO-K1 cells over-expressing 5HT2B, calcium flux, read-out: EC50 (μM), 5-HT2B Agonist Activity) is > 10 µM; at 5HT2C receptors [1] it was 0.0445 µM; on 5HT2C receptors [2] (CHO-K1 cells over-expressing 5HT2C, calcium flux, read-out: EC50 (μM), 5-HT2c Agonist Activity), 0.03 µM. Moreover, the Emax was 90% on 5HT2C receptors [1] and > 120% on 5HT2C receptors [2] (CHO-K1 cells, read-out: Emax (%), 5-HT2c Agonist Activity). This compound also came in with an inhibition constant Ki in test [3] of 0.15 µM.
In the case of `O=C1C[C@H]2CNCCN2c2cc(Cl)c(Cl)cc2N1` [Example 37, (4aS)-9,10-dichloro-1,2,3,4,4a,5-hexahydropyrazino[1,2-a][1,5]benzodiazepin-6(7H)-one], the EC50 at 5HT2B receptors is 0.003 µM; at 5HT2C receptors [1] it was 0.0032 µM; at 5HT2C receptors [2], 0.0008 µM. The maximum response (Emax) is 100% on 5HT2B receptors, 99.5% on 5HT2C receptors [1] and 100% on 5HT2C receptors [2] (setting [4]). In test [3], this compound registered a Ki of 0.014 µM.
On to `Cc1ccc2c(c1)N1CCNC[C@@H]1CC(=O)N2` [Example 36, (4aS)-10-methyl-1,2,3,4,4a,5-hexahydropyrazino[1,2-a][1,5]benzodiazepin-6(7H)-one], for which the EC50 came out at 0.008 µM at 5HT2B receptors, 0.0015 µM at 5HT2C receptors [1] and 0.002 µM on 5HT2C receptors [2]. Moreover, the maximal response (Emax) on 5HT2B receptors is 100%; on 5HT2C receptors [1], 104%; on 5HT2C receptors [2] (setting [4]), > 120%. In addition, in test [3], the Ki was 0.0091 µM.
Consider `CN1CCN2c3ccccc3NC(=O)CC2C1` (centres unmarked) [Example 38, 3-methyl-1,2,3,4,4a,5-hexahydropyrazino[1,2-a][1,5]benzodiazepin-6(7H)-one], for which the EC50 is > 10 µM on 5HT2B receptors, 0.0663 µM on 5HT2C receptors [1] and 0.08 µM on 5HT2C receptors [2]. Moreover, the Emax on 5HT2C receptors [1] amounted to 68%; on 5HT2C receptors [2] (setting [4]), 100%. In addition, the Ki in test [3] was determined as 0.2 µM.
In the case of `COc1ccc2c(c1)N1CCNC[C@@H]1CC(=O)N2` [Example 43, (4aS)-10-methoxy-1,2,3,4,4a,5-hexahydropyrazino[1,2-a][1,5]benzodiazepin-6(7H)-one], the values for the EC50 at 5HT2B receptors, at 5HT2C receptors [1] and at 5HT2C receptors [2] were 0.06 µM, 0.0138 µM and 0.01 µM, respectively. For the same compound, the results for the Emax at 5HT2B receptors, on 5HT2C receptors [1] and on 5HT2C receptors [2] (setting [4]) were 80%, 86% and > 120%, respectively. Besides, in test [3], the affinity, expressed as Ki, was 0.066 µM.
In the case of `Clc1cccc(CN2CCC3CNCCN3c3ccccc32)c1` (centres unmarked) [Example 22, 7-(3-chlorobenzyl)-1,2,3,4,4a,5,6,7-octahydropyrazino[1,2-a][1,5]benzodiazepine], at 5HT2C receptors [1], the EC50 is 0.0697 µM and the Emax turned out to be 80.5%. The Ki in test [3] was 0.085 µM.
Consider `CN1C(=O)CC2CNCCN2c2ccccc21` (centres unmarked) [Example 20, 7-methyl-1,2,3,4,4a,5-hexahydropyrazino[1,2-a][1,5]benzodiazepin-6(7H)-one], for which, at 5HT2C receptors [1], the EC50 is 0.0759 µM and the Emax was found to be 103%. Besides, in test [3], the affinity, expressed as Ki, was 0.22 µM.
In the case of `O=C1CC2CNCCN2c2ccc3ccccc3c2N1` (centres unmarked) [Example 39, 3,3a,4,5,6,7-hexahydronaphtho[1,2-b]pyrazino[1,2-d][1,4]diazepin-2(1H)-one], the half-maximal effective concentration (EC50) at 5HT2C receptors [1] was > 10 µM. Further, in test [3], the inhibition constant (Ki) is 0.034 µM.
On to `O=C1CC2CNCCN2c2ccc(Br)cc2N1` (centres unmarked) [Example 13, 9-bromo-1,2,3,4,4a,5-hexahydropyrazino[1,2-a][1,5]benzodiazepin-6(7H)-one], for which, at 5HT2C receptors [1], the EC50 was 0.0683 µM and the Emax turned out to be 79%. In addition, the Ki in test [3] turned out to be 0.23 µM.

The term EC50 denotes the concentration that produces a half-maximal response. One may read the Emax as the greatest response seen or fitted, relative to the assay's reference. In general, Ki refers to a measure of affinity in units of concentration, obtained from inhibition or displacement. Low values mean tighter binding, high ones weaker binding.
